From patent US20060035946A1, “Amyloid-binding, metal-chelating agents” (The General Hospital Corporation, priority 2003, published 2006)

Assays:
[1] = test system: cortical amyloid accumulation; conditions: Tg2576 transgenic mouse model for Alzheimer's disease; R. A. Cherny et al., Neuron 2001; cited from earlier work
Aβ1-40 [2] = molecular target: T1, Aβ1-40 (Homo sapiens, UniProt P05067); assay: Inhibition of Zn2+-induced aggregation of Aβ measured by turbidity; format: biochemical; conditions: Aβ1-40 10 μM, Zn2+ 25 μM, compound 25 μM, pH 7.4; FIG. 8
T1 construct: Human Aβ peptides (Aβ1-40 and Aβ1-42) were synthesized; purchased W. M. Keck Foundation Biotechnology Resource Laboratory (Yale); Glabe Laboratory (UC Irvine); Multhaup Laboratory (Heidelberg); U.S. Peptide, Inc; Aldrich-Sigma; host or cells: chemical synthesis (solid-phase Fmoc)
Description: (§1) Human Aβ peptides (Aβ1-40 and Aβ1-42) were synthesized using solid-phase Fmoc chemistry at the W. M. Keck Foundation Biotechnology Resource Laboratory (Yale University, New Haven, Conn.); Glabe Laboratory (University of California, Irvine, Calif.); or Multhaup Laboratory (University of Heidelberg, Germany); or purchased from U.S. Peptide, Inc. (Rancho Cucamonga, Calif.); or Aldrich-Sigma (St. Louis, Mo.). The syntheses were confirmed by purification by reverse-phase HPLC, amino acid sequencing, and mass spectrometry. Synthetic Aβ peptides were dissolved in trifluoroethanol (30% in Milli-Q water (Millipore Corporation, Milford, Mass.)) or 20 mM HEPES (pH 8.5) at a concentration of […], centrifuged for 20 minutes at 10,000×g and the supernatant (stock Aβ) used for subsequent assays on the day of the experiment.
Turbidity measurements were performed as previously described (X. Huang et al., J. Biol. Chem. 1997, 272: 26464-26470). […] Subsequently, 20 μL aliquots of 10 mM of the bifunctional molecule to be tested or 10 mM Zn^2+ were added to the mixture alternatively, and following a 2 min. delay, a further four readings were taken at 1 min. intervals. After the final addition of the bifunctional molecule and turbidity reading, the mixtures were incubated for an additional 30 minutes before taking the last readings. […]

Aβ1-40 [3] = molecular target: T1, Aβ1-40; assay: MRI signals from spherical phantoms in the presence of Aβ1-40; format: binding; conditions: PBS pH 7.4, FIG. 11
Description: as §1
(§2) Different solution mixtures (containing a contrast imaging agent, Gd-XH1 or Gd-DTPA, in the presence or absence of Aβ1-40, Aβ1-42 or HSA in PBS, pH 7.4) were injected into 4.5-mL hollow spheres (made of polypropylene) and subjected to a 3-T magnetic scanner (Simens). Spin-Echo scanning mode was used and T1 signals were measured for each solution using 12 TR values (TE=5 ms), with R1=1/T1, and R1(obs)=R1(O)+R1 (Gd-XH1-Aβ1-40 or -Aβ1-42).

HSA = HSA (Homo sapiens, UniProt P02768); assay: MRI signals from spherical phantoms in the presence of HSA; format: binding; conditions: PBS pH 7.4, FIG. 11
Method: as §2

[4] = test system: E17 rat cortical primary neurons; assay: Neurotoxicity in primary neuronal culture (LDH release and MTT assays); format: cell-based; conditions: XH1 0, 1 or 10 μM, 48 hours after treatment; FIG. 9A
Description: A primary neuronal culture was used to test the neurotoxicity of the parent bifunctional molecule, XH1. E17 rat cortical primary neurons were obtained from pathogen-free female Sprague-Dawley rats (purchased from Taconic Farms, Mass.) after 17 days of gestation, as described by G. J. Brewer and C. W. Cotman (in Brain Res. 1989, 494: 65-74). The protocol used allowed long-term culture of neurons at low density under precisely defined culture conditions. This protocol provided up to 90% neuronal culture. It was desirable that a small population of glial cells be co-cultured with the rat cortical primary neurons as these cells support neuronal survival. Cytosine arabinoside (1 μM) was used to control the growth of glial cells in the culture preparation. The neuronal population was checked regularly using neuron-specific enolase (and/or astroglia-specific S100β) immunohistochemistry.
E17 rat cortical primary neurons were grown under 95% […], 5% CO2, 85% humidity conditions, at 37° C. for 4 days in serum-free Neurobasal™ medium with B-27 supplement (Life Technologies, Inc.), 20 μM L-glutamate, 100 units/mL penicillin, […] streptomycin, and 2 mM L-glutamine. On the 5th day (treatment day), the medium was replaced with serum-free Neurobasal™ medium plus L-glutamine without B-27 supplement. […]

APP = assay: Determination of APP protein synthesis by SDS-PAGE in SH-SY5Y cells; format: cell-based, human; conditions: increasing XH1 concentration, 48 hours, FIG. 10A
Method: (§3) In SH-SY5Y human neuroblastoma cells, the capacity of XH1 to suppress APP synthesis was measured by SDS-PAGE. Control proteins (β-tubulin and/or two amyloid-precursor-like proteins, APLP1 and APLP2) were used to ensure target suppression specificity of the inventive bifunctional molecule.
(§4) SDS-PAGE. SH-SY5Y human neutoblastoma cells were harvested and washed with cold PBS three times and then lysed with M-PER™ mammalian protein extraction reagent (Pierce) mixed with protease inhibitor cocktails (Roche). The cell lysate was […] for 15 minutes at 13,000 rpm in a cold room, and the supernatants were BCA assayed for total protein concentrations. Protein blotting was performed on pre-casted NuPAGE™ 4-12% Bis-Tris Gel (Invitrogen) with equal protein loading (15 μg/well). It was run at 200 V for 45 minutes and transferred at 75 mA/gel for 95 minutes. The blots were probed by primary and secondary antibodies according to manufacturer's instructions and finally washed for 2-3 hours at 15 min. intervals. The blots were then developed using a chemiluminescent kit (Pierce).

[5] = test system: human SH-SY5Y neuroblastoma cells; assay: Neurotoxicity in neuroblastoma cells (LDH release assay); format: cell-based; conditions: XH1 0, 1, 5 or 10 μM, 48 hours after treatment; FIG. 9B
Method: The neurotoxicity of XH1 was also tested on human SH-SY5Y neuroblastoma cells. The SH-SY5Y cell line is commonly used to study neuritogenesis, differentiation, and tumorigenesis (D. Vu et al., Brain Res. Mol. Brain Res. 2003, 115: 93-103). SH-SY5Y cells were obtained from American Type Culture Collection and grown in Dulbecco's modified Eagle's medium supplemented with 10% fetal bovine serum (Gibco-BRL) and antibiotics.
Human SH-SY5Y neuroblastoma cells were incubated in the presence of XH1 (0, 1, 5 or 10 μM) (95% […], 5% CO2, 85% humidity, 37° C.) and cell viability was assessed 48 hours after treatment using the LDH release assay as described above.

APLP1 = assay: Control protein synthesis by SDS-PAGE in SH-SY5Y cells; format: cell-based, human; conditions: XH1 up to 10 μM, FIG. 10B
Method: as §3, §4

APLP2 = assay: as above; format: cell-based, human; conditions: XH1 up to 10 μM, FIG. 10B
Method: as §3, §4

β-tubulin = assay: Control protein expression by SDS-PAGE in SH-SY5Y cells; format: cell-based, human; conditions: same conditions as APP, FIG. 10A
Method: as §3, §4

T1 sequence (P05067 672-711 limits assumed): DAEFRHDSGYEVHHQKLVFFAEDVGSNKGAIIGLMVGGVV
Chain of HSA (P02768 25-609): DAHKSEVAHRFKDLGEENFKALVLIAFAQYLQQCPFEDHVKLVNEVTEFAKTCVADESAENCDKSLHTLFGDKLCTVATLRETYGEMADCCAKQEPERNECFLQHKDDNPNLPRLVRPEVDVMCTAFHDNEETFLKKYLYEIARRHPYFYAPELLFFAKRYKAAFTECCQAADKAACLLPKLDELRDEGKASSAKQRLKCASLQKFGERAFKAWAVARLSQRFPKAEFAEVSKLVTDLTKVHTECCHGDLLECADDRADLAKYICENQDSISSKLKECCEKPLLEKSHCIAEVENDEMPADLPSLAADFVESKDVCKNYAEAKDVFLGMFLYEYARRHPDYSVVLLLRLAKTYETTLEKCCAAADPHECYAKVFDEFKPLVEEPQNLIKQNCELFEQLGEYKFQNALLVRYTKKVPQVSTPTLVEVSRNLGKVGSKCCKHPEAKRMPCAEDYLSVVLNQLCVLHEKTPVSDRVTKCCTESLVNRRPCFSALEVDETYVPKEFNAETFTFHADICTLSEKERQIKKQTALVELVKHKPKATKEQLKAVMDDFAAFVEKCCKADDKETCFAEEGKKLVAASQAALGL

Q: With `Oc1c(I)cc(Cl)c2cccnc12` [Clioquinol] as the molecule, how does the cortical amyloid accumulation [1] read?
A: Its cortical amyloid accumulation is “marked inhibition”.

Q: For `O=C(O)CN(CCN(CC(=O)O)CC(=O)O)CCN(CC(=O)O)CC(=O)O` [DTPA, diethylene triaminepentaacetic acid, reference compound], which “Zn2+-induced aggregation of Aβ1-40 in solution (turbidity at 400 nm)” value (Aβ1-40 [2]) is on record?
A: Its value is “significantly decrease”.

Q: Which “effect on MRI signal of combination with Aβ” value (Aβ1-40 [3]) does the source give for `O=C([O-])CN(CCN(CC(=O)[O-])CC(=O)O)CCN(CC(=O)[O-])CC(=O)O.[Gd+3]` [Gd-DTPA] here?
A: Its value is “No effects”.

Q: And the “effect on MRI signal of combination with HSA” value (HSA)?
A: The value was “No effects”.

Q: For `O=C(O)CN(CCN(CC(=O)O)CC(=O)Nc1ccc(-c2nc3ccccc3s2)cc1)CCN(CC(=O)O)CC(=O)Nc1ccc(-c2nc3ccccc3s2)cc1` [XH1], which “Zn2+-induced aggregation of Aβ1-40 in solution (turbidity at 400 nm)” value (Aβ1-40 [2]) is on record?
A: Its value is “significantly decrease”.

Q: And the “cell death (LDH release and MTT assays)” value [4]?
A: The value was “does not induce any significant cell death”.

Q: What about the APP synthesis (APP) of the same molecule?
A: The APP synthesis was “decrease in APP synthesis”.

Q: And the “cell death (LDH release assay)” value [5]?
A: Its value is “does not cause any significant cell death”.

Q: What about the APLP1 synthesis (APLP1) of the same molecule?
A: Its APLP1 synthesis is “did not affect”.

Q: What about the APLP2 synthesis (APLP2) of the same molecule?
A: Its APLP2 synthesis is “did not affect”.

Q: What about the β-tubulin expression (β-tubulin) of the same molecule?
A: The β-tubulin expression was “no effects”.
